Results from patent publication US4920128A, “Pyrazolo[3,4-b]quinolines and their use as antiviral agents” (Sterling Drug Inc., priority 1988, dated 1990).
Converted amounts (≈) assume the structure as drawn.

Legend:
[1] = test system: phenylephrine-contracted aortic ring preparation; assay: vasodilator activity in phenylephrine-contracted aortic ring preparation from the spontaneously hypertensive rat (SHR); settings: 50% of maximal relaxation induced by papaverine (200 μM), contracted with 1 μM phenylephrine
Experimental: Aortic ring preparations from SHR are suspended in buffered physiological saline and induced to contract by addition of 1 μM phenylephrine, a selective α1 -adrenergic agonist. When a sustained contraction is obtained, the test compound is added cumulatively in ascending concentrations beginning at 1 μM. At the end of the addition of the test compound, a 200 μM concentration of papaverine is added to the organ bath for induction of a 100% vasodilator response. Percent relaxation by the test compound is expressed as a percent of maximal relaxation induced by papaverine. […] By this procedure, EC50 values for certain compounds of the invention were determined with the following results: […]

[2] = test system: herpes simplex virus type 2 (HSV-2); assay: HSV-2 plaque-reduction on mouse embryo fibroblast monolayers; type: cell-based; settings: concentration which inhibited the number of plaques by 50%, interpolated, HSV-2 (Curtis strain), ~80 pfu, 2 days at 37° C.; for IC50: Human alphaherpesvirus 2, Fibroblast, 48 h, read-out: MIC
Experimental: The activity of the compounds of the invention against herpes simplex virus type 2 (HSV-2) was determined by measuring plaque-reduction activity on mouse embryo fibroblast monolayers. Two-day-old monolayers of Balb/c or ICR mouse embryo fibroblasts (MEF) were infected with approximately 80 pfu (plaque forming units) of HSV-2 (Curtis strain) in the presence of various concentrations of the test compounds. After a 1 hour absorption period at 37° C. and 2% CO2, the inoculum was removed and an overlay containing equal parts of 2X MS medium supplemented with 10% fetal calf serum (FSC) and 1% molten Seakem agarose was added to cell monolayers. Both the inocula and the overlay mixtures contained 1:200 dilutions of the test compound made from stock dilutions in dimethylsulfoxide. After incubation at 37° C. and 2% CO2 for 2 days, the monolayers were fixed with 5% glutaraldehyde and stained with 0.25% aqueous crystal violet. The plaques were quantitated by visual inspection. The minimum inhibitory concentration (MIC) for a compound was defined as the concentration in micrograms per milliliter (μg/ml) which inhibited the number of plaques by 50%. The MIC was calculated by interpolation.

| Compound | EC50 [1] | IC50 [2] | MIC [2] |
| --- | --- | --- | --- |
| Cn1nc(N)c2cc3ccc(O)cc3nc21 [Example 12, 3-Amino-1-methyl-1H-pyrazolo[3,4-b]quinolin-7-ol] | 57 µM | – | – |
| COc1ccc2cc3c(Cl)nn(CCN(C)C)c3nc2c1 [Example 40, 3-Chloro-1-(2-dimethylaminoethyl)-7-methoxy-1H-pyrazolo[3,4-b]quinoline] | – | 0.67 µg/mL (≈ 2.2 µM) | – |
| COc1ccc2cc3c(Br)nn(CCN(C)C)c3nc2c1 [Example 37, 3-Bromo-1-[2-(dimethylamino)ethyl]-7-methoxy-1H-pyrazolo[3,4-b]quinoline] | – | 0.97 µg/mL (≈ 2.78 µM) | – |
| CCN(CC)CCn1nc(N)c2cc3ccc(O)cc3nc21 [Example 23] | 33 µM | 39 µg/mL (≈ 130 µM) | – |
| COc1ccc2cc3c(N)nn(CC(C)N(C)C)c3nc2c1 (stereo not drawn) [Example 44a, 1-[2-(dimethylamino)-2-methylethyl]-7-methoxy-1H-pyrazolo[3,4-b]quinolin-3-amine] | – | 11 µg/mL (≈ 36.7 µM) | – |
| CN(C)CCn1nc(N)c2cc3ccc(O)cc3nc21 [Example 24, 3-Amino-1-[2-(dimethylamino)ethyl]-1H-pyrazolo[3,4-b]quinolin-7-ol] | – | 13 µg/mL (≈ 47.9 µM) | – |
| CNCCn1nc(N)c2cc3cc(OC)ccc3nc21 [Example 27, 1-[2-(Methylamino)ethyl]-6-methoxy-1H-pyrazolo[3,4-b]quinolin-3-amine] | – | 13 µg/mL (≈ 47.9 µM) | – |
| COc1ccc2nc3[nH]nc(N)c3cc2c1 [1(d), 6-Methoxy-1H-pyrazolo[3,4-b]quinolin-3-amine] | 31 µM | 1.5 µg/mL (≈ 7 µM) | – |
| COc1ccc2nc3c(cc2c1)c(N)nn3CC(=O)N(C)C [Example 25, 3-Amino-6-methoxy-N,N-dimethyl-1H-pyrazolo[3,4-b]quinolin-1-acetamide] | 116 µM | – | – |
| Nc1n[nH]c2nc3ccccc3cc12 [2(d), 1H-Pyrazolo[3,4-b]quinolin-3-amine] | 26 µM | – | – |
| COc1cc2cc3c(N)n[nH]c3nc2cc1OC [4(d), 6,7-Dimethoxy-1H-pyrazolo[3,4-b]quinolin-3-amine] | 18 µM | – | – |
| COc1ccc2cc3c(Cl)nn(CC(C)N(C)C)c3nc2c1 (stereo not drawn) [Example 45, 3-Chloro-1-[2-(dimethylamino)-2-methylethyl]-7-methoxy-1H-pyrazolo[3,4-b]quinoline] | – | 0.88 µg/mL (≈ 2.76 µM) | – |
| COc1ccc2cc3c(N)nn(CCN4CCOCC4)c3nc2c1 [Example 15, 7-Methoxy-1-[2-(4-morpholinyl)ethyl]-1H-pyrazolo[3,4-b]quinolin-3-amine] | – | 44 µg/mL (≈ 134 µM) | – |
| CCn1nc(N)c2cc3ccc(OC)cc3nc21 [Example 10, 1-Ethyl-7-methoxy-1H-pyrazolo[3,4-b]quinolin-3-amine] | – | 7.8 µg/mL (≈ 32.2 µM) | – |
| CNC(C)Cn1nc(Cl)c2cc3ccc(OC)cc3nc21 (stereo not drawn) [Example 46, 3-Chloro-1-[2-(methylamino)-2-methylethyl]-7-methoxy-1H-pyrazolo[3,4-b]quinoline] | – | 3.7 µg/mL (≈ 12.1 µM) | – |
| COc1ccc2nc3c(cc2c1)c(C#N)nn3C [Example 33, 6-Methoxy-1-methyl-1H-pyrazolo[3,4-b]quinoline-3-carbonitrile] | – | 42 µg/mL (≈ 176 µM) | – |
| CCNC(=O)Cn1nc(N)c2cc3ccc(OC)cc3nc21 [Example 28, 3-Amino-7-methoxy-N-ethyl-1H-pyrazolo[3,4-b]quinolin-1-acetamide] | 70 µM | – | – |
| COc1ccc2cc3c(N)nn(-c4ccccc4)c3nc2c1 [Example 11, 7-Methoxy-1-phenyl-1H-pyrazolo[3,4-b]quinolin-3-amine] | – | 19 µg/mL (≈ 65.4 µM) | – |
| CCOc1ccc2cc3c(N)n[nH]c3nc2c1 [5(d), 7-Ethoxy-1H-pyrazolo[3,4-b]quinolin-3-amine] | – | 17 µg/mL (≈ 74.5 µM) | – |
| COc1ccc2nc3c(cc2c1)c(C(N)=O)nn3C [Example 35, 6-Methoxy-1-methyl-1H-pyrazolo[3,4-b]quinoline-3-carboxamide] | 9 µM | 7 µg/mL (≈ 27.3 µM) | – |

| Compound | EC50 [1] | IC50 [2] | MIC [2] |
| --- | --- | --- | --- |
| CCN(CC)CCn1nc(N)c2cc3ccc(OC)cc3nc21 [Example 22, 1-[2-(Diethylamino)ethyl]-7-methoxy-1H-pyrazolo[3,4-b]quinolin-3-amine] | 22 µM | 23 µg/mL (≈ 73.4 µM) | – |
| Nc1n[nH]c2nc3ccc(O)cc3cc12 [Example 14, 3-Amino-1H-pyrazolo[3,4-b]quinolin-6-ol] | 25 µM | – | – |
| COc1ccc2cc3c(C#N)nn(CCN(C)C)c3nc2c1 [Example 38, 1[2-(Dimethylamino)ethyl]-7-methoxy-1H-pyrazolo[3,4-b]quinoline-3-carbonitrile] | – | 0.82 µg/mL (≈ 2.78 µM) | – |
| CCCn1nc(N)c2cc3ccc(OC)cc3nc21 [Example 9, 7-Methoxy-1H-1-propylpyrazolo[3,4-b]quinolin-3-amine] | – | 5.3 µg/mL (≈ 20.7 µM) | – |
| COc1ccc2nc3c(cc2c1)c(N)nn3CCN(C)C [Example 21, 1-[2-(Dimethylamino)ethyl]-6-methoxy-1H-pyrazolo[3,4-b]quinolin-3-amine] | 38 µM | 24 µg/mL (≈ 84.1 µM) | – |
| COc1ccc2cc3c(N)nn(CN(C)C)c3nc2c1 [Example 30, 1-[(Dimethylamino)methyl]-7-methoxy-1H-pyrazolo[3,4-b]quinolin-3-amine] | – | 2.6 µg/mL (≈ 9.58 µM) | – |
| CNCCn1nc(Br)c2cc3ccc(OC)cc3nc21 [Example 41, 3-Bromo-7-methoxy-1-(2-methylaminoethyl)-1H-pyrazolo[3,4-b]quinoline] | – | 0.72 µg/mL (≈ 2.15 µM) | – |
| COc1ccc2cc3c(N)n[nH]c3nc2c1 [3(d), 7-Methoxy-1H-pyrazolo[3,4-b]quinolin-3-amine] | 21 µM | 4.3 µg/mL (≈ 20.1 µM) | – |
| COc1ccc2nc3c(cc2c1)c(Br)nn3CCN(C)C [Example 36, 3-Bromo-1-[2-(dimethylamino)ethyl]-6-methoxy-1H-pyrazolo[3,4-b]quinoline] | – | 4.3 µg/mL (≈ 12.3 µM) | – |
| CCN(CC)CCn1nc(N)c2cc3cc(OC)ccc3nc21 [Example 16, 1-[2-(Diethylamino)ethyl]-6-methoxy-1H-pyrazolo[3,4-b]quinolin-3-amine] | 40 µM | – | – |
| CCOC(=O)Cn1nc(N)c2cc3ccc(OC)cc3nc21 [Example 19, Ethyl 3-amino-7-methoxy-1H-pyrazolo[3,4-b]quinolin-1-acetate] | 71 µM | 12 µg/mL (≈ 40 µM) | – |
| COc1ccc2cc3c(N)nn(CCN(C)C)c3nc2c1 [Example 18, 1-[2-(Dimethylamino)ethyl]-7-methoxy-1H-pyrazolo[3,4-b]quinolin-3-amine] | 25 µM | 12 µg/mL (≈ 42.1 µM) | – |
| COc1cccc2nc3[nH]nc(N)c3cc12 [6(d), 5-Methoxy-1H-pyrazolo[3,4-b]quinolin-3-amine] | – | 13 µg/mL (≈ 60.7 µM) | – |
| COC(=O)c1nn(CCN(C)C)c2nc3cc(OC)ccc3cc12 [Example 39, Methyl 1-[2-(dimethylamino)ethyl]-7-methoxy-1H-pyrazolo[3,4-b]quinoline-3-carboxylate] | – | 2.3 µg/mL (≈ 7 µM) | – |
| COc1ccc2cc3c(N)nn(C)c3nc2c1 [Example 7, 7-Methoxy-1-methyl-1H-pyrazolo[3,4-b]quinolin-3-amine] | 43 µM | 6.4 µg/mL (≈ 28 µM) | – |
| 7-Methoxy-1-methyl-1H-pyrazolo[3,4-b]quinoline-3-methanamine [Example 34] | – | – | 15 µg/mL |
| Nc1n[nH]c2nc3cc(O)ccc3cc12 [Example 13, 3-Amino-1H-pyrazolo[3,4-b]quinolin-7-ol] | 87 µM | 13 µg/mL (≈ 64.9 µM) | – |
| CCNCCn1nc(N)c2cc3ccc(OC)cc3nc21 [Example 29, 1-[2-(Ethylamino)ethyl]-7-methoxy-1H-pyrazolo[3,4-b]quinolin-3-amine] | – | 6.7 µg/mL (≈ 23.5 µM) | – |
| COc1ccc2nc3c(cc2c1)c(N)nn3CCCN(C)C [Example 17, 1-[3-(Dimethylamino)propyl]-6-methoxy-1H-pyrazolo[3,4-b]quinolin-3-amine] | 91 µM | 78 µg/mL (≈ 261 µM) | – |
| COc1ccc2nc3c(cc2c1)c(Cl)nn3C [Example 31, 3-Chloro-6-methoxy-1-methyl-1H-pyrazolo[3,4-b]quinoline] | – | 18 µg/mL (≈ 72.7 µM) | – |
